Assay results reported in patent publication US20100113436A1, “DISPIRO TETRAOXANE COMPOUNDS AND THEIR USE IN THE TREATMENT OF MALARIA AND/OR CANCER” (priority 2006, published 2010).
pIC50: −log10 of the molar value. Where “and” joins values, the source holds several entries; their conditions need not be identical. Identical values can stand only once. Like-named read-outs stand apart in the source and are kept apart here. Marks after values point to notes of the source that are not given here.

Tests used:
[1] = Timed iron degradation stability, FeBr2 in THF; type: physicochemical; details: ferrous bromide/THF
Excerpt: The resulting residue was purified by flash column chromatography and the % recovery of starting endoperoxide calculated (Table 15).

[2] = tested on: Plasmodium falciparum PH3; test: In vitro analysis versus strains of Plasmodium falciparum: PH3; type: cell-based
[3] = tested on: 3D7 strain of Plasmodium falciparum; test: In vitro antimalarial activity, 48-h [3H]-hypoxanthine incorporation assay; type: cell-based
Description: The 3D7 strain of Plasmodium falciparum was used in this study. This strain is known to be […] Parasites were maintained in continuous culture using the method of Jensen and Trager^4. […] Stock drug solutions were prepared in 100% dimethylsulphoxide (DMSO) and diluted to the appropriate concentration using complete medium. Assays were performed in sterile 96-well microlitre plates, each plate contained 200 μl of parasite culture (2% parasitemia, 0.5% haematocrit) with or without 10 μl drug dilutions. Each drug was tested in triplicate and parasite growth compared to control wells (which constituted 100% parasite growth). […] IC50 values were calculated by interpolation of the probit transformation of the log dose-response curve.

[4] = tested on: Plasmodium falciparum DD2; test: In vitro analysis versus strains of Plasmodium falciparum: DD2; type: cell-based
[5] = tested on: Plasmodium falciparum TM4; test: In vitro analysis versus strains of Plasmodium falciparum: TM4; type: cell-based
[6] = tested on: Plasmodium falciparum V1S; test: microbe, parasite or virus in culture; type: cell-based
[7] = tested on: Plasmodium falciparum GC03; test: In vitro analysis versus strains of Plasmodium falciparum: GC03; type: cell-based
[8] = tested on: Plasmodium falciparum HB3; test: In vitro analysis versus strains of Plasmodium falciparum: HB3; type: cell-based
[9] = tested on: MRC-5 Embryonal lung, diploid; test: Cellular cytotoxicity screen, Resazurin reduction; type: cell-based, Human; details: for Theraputic Index (TI): ratio TOX 50 to IC50 against 3D7 P. falciparum
Excerpt: (§1) Values represent Tox 50 in μM. Cytotoxicity measured by Resazurin reduction.
(§2) Single full dose response curves generated using 10 independent drug concentrations. The 100 therapeutic index (TI) is the ration of the TOX 50 to the IC50 for the specific compound against the 3D7 P. falciparum isolate. The primary hepatocytes have demonstrable drug metabolising activity. The tetraoxane derivatives are remarkably non-toxic in these screens with in vitro TIs of between 5000 to 17000!.

[10] = tested on: L6 Sketal muscle myoblast; test: Cellular cytotoxicity screen, Resazurin reduction; type: cell-based, rat; details: for Theraputic Index (TI): ratio TOX 50 to IC50 against 3D7 P. falciparum
Excerpt: as §1, §2

[11] = tested on: H9c2(2-1) Myocardium, heart; test: Cellular cytotoxicity screen, Resazurin reduction; type: cell-based, rat; details: H9c(2-1); for Theraputic Index (TI): ratio TOX 50 to IC50 against 3D7 P. falciparum
Excerpt: as §1, §2

P. berghei ANKA [12] = test: In vivo dose response screening against P. berghei ANKA; design: species or system mice; details: for ED50: Plasmodium berghei
Description: Compound 29c, 29h and 291 were then subjected to dose response experiment against the P. berghei ANKA and the results are summarized in Table 7 below.

Plasmodium falciparum K1 = test: In vitro analysis versus strains of Plasmodium falciparum: K1; type: cell-based; details: K1 strain
Vero Kidney = test: Cellular cytotoxicity screen, Resazurin reduction; type: cell-based, African green monkey, Cercopithecus aethiops; details: for Theraputic Index (TI): ratio TOX 50 to IC50 against 3D7 P. falciparum
Excerpt: as §1, §2

[13] = tested on: Salmonella typhimurium TA1535/pSK1002; test: Salmonella typhimurium SOS/umu genotoxicity assay; details: for genotoxicity result in SOS/umu assay: both strains TA1535/pSK1002 and NM2009, highest concentration tested 50 μM, absence and presence of S-9 mix; for Max. Fold Increase / Potential genotox: −S9
Excerpt: (§3) This assay is based on the ability of DNA damaging agents to induce the expression of the umu operon. The Salmonella strains have a plasmid pSK1002 which carries an umuC-lacZ fused gene that produces a hybrid protein with β-galactosidase activity and whose expression is controlled by the umu regulatory region.

[14] = tested on: Salmonella typhimurium NM2009; test: Salmonella typhimurium SOS/umu genotoxicity assay; details: for Max. Fold Increase / Potential genotox: −S9
Excerpt: as §3

Plasmodium yoelli = test: 4-day Peter's suppressive test; type: in vivo; details: 4-day Peter's test, mice
Description: Selections of the compounds were screened for in vivo activity. In vivo data (Table 6) was determined using 30 mg/kg oral (po) and subcutaneous (sc) doses in a 4-days Peter's test. For subcutaneous administration, compounds were dissolved in 10% dimethylsulfoxide (DMSO) 0.05% Tween 80 (Sigma, Dorset, UK) in distilled water. For oral administration, compounds were dissolved in standard suspending formula (SSV) [0.5% sodium carboxymethylcellulose, 0.5% benzyl alcohol, 0.4% Tween 80, 0.9% NaCl (all Sigma)]. Subcutaneous (s.c) or oral (p.o) treatment was done with 0.2 ml of a solution of the test compound two hours (day 0) and on days 1, 2, and 3 post infections. Parasitaemia was determined by microscopic examination of Giemsa stained blood films taken on day 4. Microscopic counts of blood films from each mouse were processed using MICROSOFT@EXCELL spreadsheet (Microsoft Corp.) and expressed as percentage of inhibition from the arithmetic mean parasitaemias of each group in relation to the untreated group.

[15] = tested on: HepG2 Human hepatocyte carcinoma; test: Cellular cytotoxicity screen, Resazurin reduction; type: cell-based; details: Hep2G; for Theraputic Index (TI): ratio TOX 50 to IC50 against 3D7 P. falciparum
Excerpt: as §1, §2

P. berghei ANKA [16] = test: In vivo dose response screening against P. berghei ANKA; details: P. berghei ANKA infected mice, Table 9; for ED90: sigmoidal curve calculation
[17] = Chloroquine Resistant Strains of the P. Berghei ANKA, Table 7
[18] = in Mus musculus, Chloroquine Resistant Strains of the P. Berghei ANKA, Table 7
[19] = 3D7, 3D7 strain, mean of triplicate results, Table 5, read-out: Mean IC50

O=S(=O)(c1ccccc1)N1CCC2(CC1)COC1(OO2)C2CC3CC(C2)CC1C3 (stereo not drawn) [Tetraoxane 43]
degraded ([1]; after 48 h): 57%

CCN(CC)CCCC(C)Nc1ccnc2cc(Cl)ccc12 (stereo not drawn) [Chloroquine, reference compound]
pIC50 [2]: 7.14 | pIC50 ([3]; 3D7, read-out: Mean IC50): 8.07 | pIC50 ([4]; DD2): 7.09 | pIC50 [5]: 7.04 | pIC50 [6]: 7.08 | pIC50 [7]: 8.09 | pIC50 ([8]; HB3): 8.18

O=C(CC1CCC2(CC1)OOC1(OO2)C2CC3CC(C2)CC1C3)N1CCOCC1 (stereo not drawn) [Tetraoxane 29h, Adamantly-1-Morpholin-4-yl tetraoxane acetamide]
pIC50 ([2]; PH3 strain, read-out: IC50): 9.52 | Tox 50 [9]: >50 µM | Theraputic Index (TI) [9]: >16666 | Tox 50 [10]: 23 µM | Theraputic Index (TI) [10]: 7666 | Tox 50 [11]: >50 µM | Theraputic Index (TI) [11]: >16666 | pIC50 ([3]; 3D7, read-out: Mean IC50): 8.28 | pIC50 ([4]; DD2 strain, read-out: IC50): 9.22 | ED90 (P. berghei ANKA [12]; [17]): 3.88 mg/kg | ED50 (P. berghei ANKA [12]; [18]): 3.18 mg/kg | melting point: 139 to 140 °C | pIC50 (Plasmodium falciparum K1): 9.10 | Tox 50 (Vero Kidney): >50 µM | Theraputic Index (TI) (Vero Kidney): >16666 | solubility (physchem): 50 µM | pIC50 ([5]; TM4 strain, read-out: IC50): 9.22 | MCE TA1535 (Maximum Co w/o effects on bacteria growth or β-galactosidase production) ([13]; Salmonella typhimurium): 50 µM | genotoxicity result in SOS/umu assay [13]: Negative | Max. Fold Increase [13]: 1.04 ± 0.04 fold | Potential genotox [13]: NEG | MCE NM2009 (Maximum Co w/o effects on bacteria growth or beta-galactosidase production) ([14]; Salmonella typhimurium): 50 µM | Max. Fold Increase [14]: 1.22 ± 0.03 fold | Potential genotox [14]: NEG | pIC50 ([7]; GC03 strain, read-out: IC50): 9.05 | Percentage of inhibition at 30 mg/kg (p.o) (Plasmodium yoelli): 100% | pIC50 ([8]; HB3 strain, read-out: IC50): 8.85 | Tox 50 [15]: >50 µM | Theraputic Index (TI) [15]: >16666

CO[C@H]1O[C@@H]2O[C@@]3(C)CC[C@H]4[C@H](C)CC[C@@H]([C@H]1C)[C@@]24OO3 [Artemether, artemether, reference compound]
pIC50 [3, 19]: 8.77 | pIC50 ([3]; 3D7, sulfonamide dispiro 1,2,4,5-tetraoxanes, Table 8, read-out: Mean IC50): 8.49 | ED90 (P. berghei ANKA [12]; [17]): 10.57 mg/kg | ED50 (P. berghei ANKA [12]; [18]): 5.88 mg/kg | Percentage of inhibition at 30 mg/kg (p.o) (Plasmodium yoelli): 100%

O=S(=O)(c1ccccc1)N1CCC2(CC1)OOC1(O2)C2CC3CC(C2)CC1C3 (stereo not drawn) [Tetraoxane 42]
degradation ([1]; after 4 h): ~90% | turnover ([1]; after 48 h): 100%

O=C(CC1CCC2(CC1)OOC1(CCCCC1)OO2)N1CCOCC1 [Tetraoxane 27h, 1-Morpholin-4-yl-2-(7,8,15,16-tetraoxa-dispiro[5.2.5.2]hexadec-3-yl)-ethanone]
pIC50 [3, 19]: 7.65 | melting point: 126 to 128 °C | Percentage of inhibition at 30 mg/kg (p.o) (Plasmodium yoelli): 33.0%

O=S(=O)(C1CC1)N1CCC2(CC1)OOC1(OO2)C2CC3CC(C2)CC1C3 [Tetraoxane 39d]
Tox 50 [9]: >50 µM | Theraputic Index (TI) [9]: >14285 | Tox 50 [10]: >50 µM | Theraputic Index (TI) [10]: >14285 | Tox 50 [11]: >50 µM | Theraputic Index (TI) [11]: >14285 | pIC50 ([3]; 3D7, read-out: Mean IC50): 8.45 | ED50 (P. berghei ANKA [12]; P. berghei ANKA infected mice, Table 9): 7.93 mg/kg | Tox 50 (Vero Kidney): >50 µM | Theraputic Index (TI) (Vero Kidney): >14285 | solubility (physchem): 50 µM | MCE TA1535 (Maximum Co w/o effects on bacteria growth or β-galactosidase production) ([13]; Salmonella typhimurium): 50 µM | genotoxicity result in SOS/umu assay [13]: Negative | Max. Fold Increase [13]: 1.05 ± 0.09 fold | Potential genotox [13]: NEG | MCE NM2009 (Maximum Co w/o effects on bacteria growth or beta-galactosidase production) ([14]; Salmonella typhimurium): 50 µM | Max. Fold Increase [14]: 1.09 ± 0.03 fold | Potential genotox [14]: NEG | ED90 (P. berghei ANKA [16]): 49.77 mg/kg | Tox 50 [15]: >50 µM | Theraputic Index (TI) [15]: >14285

O=C(CC1CCC2(CC1)OOC1(OO2)C2CC3CC(C2)CC1C3)NC1CC1 (stereo not drawn) [Tetraoxane 29c, Adamantyl-N-Cyclopropyl tetraoxane acetamide]
pIC50 [3, 19]: 8.64 | ED90 (P. berghei ANKA [12]; [17]): 20.33 mg/kg | ED50 (P. berghei ANKA [12]; [18]): 10.3 mg/kg | melting point: 140 to 142 °C | Percentage of inhibition at 30 mg/kg (p.o) (Plasmodium yoelli): 100%

CN1CCN(C(=O)CC2CCC3(CC2)OOC2(OO3)C3CC4CC(C3)CC2C4)CC1 (stereo not drawn) [Tetraoxane 29l]
pIC50 [3, 19]: 9.30 | ED50 (P. berghei ANKA [12]; [18]): 2.7 mg/kg | Percentage of inhibition at 30 mg/kg (p.o) (Plasmodium yoelli): 100%

Nc1ccc2cc3ccccc3cc2c1 [Tetraoxane 2Aan, 2-Aminoanthracene, reference compound]
solubility (physchem): 5 µg/mL | MCE TA1535 (Maximum Co w/o effects on bacteria growth or β-galactosidase production) ([13]; positive controls): 5 µg/mL | Max. Fold Increase [13]: 1.10 ± 0.11 fold | Potential genotox [13]: NEG | MCE NM2009 (Maximum Co w/o effects on bacteria growth or beta-galactosidase production) ([14]; in the presence of rat S9): 0.31* μg/mL | Max. Fold Increase [14]: 1.08 ± 0.01 fold | Potential genotox [14]: NEG

CCN(CC)Cc1cc(Nc2ccnc3cc(Cl)ccc23)ccc1O [AM, Amodiaquine, reference compound]
pIC50 ([2]; PH3 strain, read-out: IC50): 8.33 | pIC50 ([4]; DD2 strain, read-out: IC50): 8.21 | pIC50 (Plasmodium falciparum K1): 7.99 | pIC50 ([5]; TM4 strain, read-out: IC50): 8.19 | pIC50 [6]: 8.11 | pIC50 ([7]; GC03 strain, read-out: IC50): 8.35 | pIC50 ([8]; HB3 strain, read-out: IC50): 8.23

O=C(CC1CCC2(CC1)OOC1(CCCCC1)OO2)NC1CC1 [Tetraoxane 27c, N-Cyclopropyl-2-(7,8,15,16-tetraoxa-dispiro[5.2.5.2]hexadec-3-yl)-acetamide]
melting point: 148 to 150 °C | Percentage of inhibition at 30 mg/kg (p.o) (Plasmodium yoelli): 24.8%

C[C@H]1[C@H](OC(=O)CCC(=O)O)O[C@@H]2O[C@@]3(C)CC[C@H]4[C@H](C)CC[C@@H]1[C@@]24OO3 [Artesunate, artesunate]
pIC50 [2]: 9.05 | ED50 (P. berghei ANKA [16]): 2.90 mg/kg | ED90 (P. berghei ANKA [16]): 17.78 mg/kg and 16.67 mg/kg | ED50 (P. berghei ANKA [16]; Plasmodium berghei, in Mus musculus): 3.2 mg/kg | Percentage of inhibition at 30 mg/kg (p.o) (Plasmodium yoelli): 100%

COc1cccc2c1C(=O)c1c(O)c3c(c(O)c1C2=O)C[C@@](O)(C(=O)CO)C[C@@H]3O[C@H]1C[C@H](N)[C@H](O)[C@H](C)O1 [Doxorubicin]
Tox 50 [9]: 2 µM | Tox 50 [10]: >5 µM | Tox 50 [11]: 3 µM | Tox 50 (Vero Kidney): >5 µM | Tox 50 [15]: 0.3 µM
